Source: patent US11649231B2, “Compound as mTOR inhibitor and use thereof” (MEDICINAL BIOCONVERGENCE RESEARCH CENTER, priority 2018, dated 2023)

Key:
RagD = RagD GTP hydrolysis inhibitory activity (GTP-agarose bead pulldown assay) in SW620 cells; type: cell-based; conditions: 10 μM for 1 hour, leucine restimulation 15 min
Protocol: GTP-agarose bead pulldown assay was performed to analyze RagD bound to GTP.
After washing the cells with cold PBS, cells were obtained in GTP-binding buffer (20 mM Tris-HCl, pH 7.5, 5 mM MgCl2, 2 mM PMSF, 20 μg/ml leupeptin, 10 μg/ml aprotinin, 150 mM NaCl, 1% Triton X-100, 1× phosphatase inhibitor cocktail). The cells were sonicated for 15 seconds to lyse, and the cell lysate was centrifuged at 4° C. for 10 minutes and at 13000×g to obtain a supernatant. The obtained protein solution (contained in 500 μl of GTP-binding buffer) was treated with 100 μl of GPT-agarose bead (Sigma Aldrich, Cat no. G9768) and left at 4° C. for 30 minutes. Thereafter, the beads were washed with GTP-binding buffer, and the supernatant was recovered. The washed beads in the recovered supernatant were once again treated for 30 minutes. The beads were washed again, and the recovered supernatant was left overnight at 4° C. After washing 5 times with GTP-binding buffer to separate contaminants that may have been included, the GTP-binding protein was analyzed by performing immunoblot analysis using anti-RagD or ARF1 antibody. ARF1 was used as a negative control.

LRS and RagD = LRS and RagD (Homo sapiens (Human), UniProt Q9P2J5); assay: Inhibition of the interaction of LRS and RagD (immunoprecipitation) in SW620 cells; type: cell-based; conditions: 10 uM for 1 hour, leucine restimulation, anti-LRS or anti-RagD precipitate
Protocol: Cells were lysed using a lysis buffer containing a protease inhibitor, and a primary antibody was added to the cell lysate for immunoprecipitation, followed by stirring at 4° C. for 2 hours and allowed to stand. A 50% protein agarose G-Sepharose slurry was added and left for an additional 4 hours. After washing three times with cold lysis buffer, the precipitate was dissolved in SDS sample buffer, separated by SDS-PAGE, and immunoblotted using anti-LRS or anti-RagD antibody.

autophagy [1] = assay: Autophagy markers (LC3 II increase or p62 cleavage) in TSC2 CKO epilepsy animal model; type: in vivo, mouse; conditions: TSC2 CKO mice; rapamycin 3 mg/kg or Example 1-1K 10 mg/kg i.p.; 4 weeks
Protocol: (§1) Animal care was performed according to an animal protocol approved by the Animal Experiment Committee of Seoul National University. TSC2^GFAP1 CKO mice were generated as follows. TSC2^flox/flox mice were first crossed with the same GFAP-Cre mouse line. The resulting TSC2^flox/+; TSC2^flox/flox by crossing GFAP-Cre mice with other TSC2^flox/flox mice; GFAP-Cre mice were generated.
(§2) For western blot analysis, mouse cerebral neocortex and hippocampus were dissected and sonicated in cell lysis buffer (Cell Signaling, Beverly, Mass., USA). After centrifugation at 15,000 rpm at 4° C. for 1 hour. a supernatant was obtained and the protein concentration was measured by the Bradford method (Pierce, Rockford, Ill., USA). An equal amount of total protein extract was separated by SDS-PAGE and transferred to a nitrocellulose membrane. After incubation with anti-p-S6K (T389) (Cell Signaling, #9205), anti-S6K (Cell Signaling, #9202), anti-Actin (Santa Cruz Biotechnology, #sc-1616), anti-p-AKT (S473) (Cell signaling, #4060), anti-AKT (Cell signaling, #2920) anti-p62/SQSTM1 (Cell signaling, #39749) and anti-LC3A (Cell signaling, #4108) antibodies in 1% TTBBS buffer (10 mM Tris, 10% Tris (Tris-HCl, pH 7.5, 150 mM NaCl, 0.05% Tween 20), the membrane was reacted with a peroxidase-conjugated secondary antibody. Signals were detected using an improved chemiluminescent reagent (Pierce, Rockford, Ill., USA).

mTORC2 [2] = target: T1, mTORC2 (Mus musculus (Mouse), UniProt Q9JLN9); assay: In vivo mTORC2 activity, AKT phosphorylation in brain of C57BL/6 mice; conditions: 100 mg/kg intraperitoneal; 7-week-old C57BL/6 male mice
Protocol: (§3) The salt of the compound of the Example 1-1 was administered at a dose of 100 mg/kg (in 10% DMAC, 15% Tween 80, 75% 0.1M Na2HPO4, pH9.4), and rapamycin at a dose of 2 mg/kg (in 10% DMAC, 15% Tween 80, 75% saline).

mTORC1 [3] = assay: mTORC1 activation (p-S6K T389) in TSC2 CKO epilepsy animal model; type: in vivo, mouse; conditions: TSC2 CKO mice; rapamycin 3 mg/kg or Example 1-1K 10 mg/kg i.p.; 4 weeks; vs control
Protocol: as §1
For western blot analysis, mouse cerebral neocortex and hippocampus were dissected and sonicated in cell lysis buffer (Cell Signaling, Beverly, Mass., USA). After centrifugation at 15,000 rpm at 4° C. for 1 hour. a supernatant was obtained and the protein concentration was measured by the Bradford method (Pierce, Rockford, Ill., USA). An equal amount of total protein extract was separated by SDS-PAGE and transferred to a nitrocellulose membrane.

mTORC1 [4] = assay: mTORC1 activity inhibitory effect at 20 μM, phospho-p70 S6 Kinase Western blot in SW620 cells; conditions: leucine-free 1 h 30 min, then leucine 15 min, vs DMSO control
Protocol: In order to evaluate the inhibitory effect of the compounds according to the present invention on the activity of mTORC1, an experiment was performed in the following manner.

B6C3H/APP/PS1 mice = assay: Amyloid plaque removal in Alzheimer's animal model, ThS staining; type: in vivo, mouse; conditions: 5, 10 or 20 mg/kg intraperitoneal once daily for 7 days, vs vehicle
Excerpt: In the experiment, 7 months old male B6C3H/APP/PS1 mice were purchased from Jackson Lab (Bar Harbor, Me., USA) and used. These mouse are all dual transgenic mice expressing chimeric mouse/human amyloid precursor protein and mutant human presenilin 1, both of these are about CNS neurons. Both mutations are associated with early onset Alzheimer's.
The prepared salt (1-4K) of the compound of Example 1-1 was intraperitoneally administered at 0, 5, 10 or 20 mpk (mg/kg) per mouse, once daily for 7 days. As the solvent, 10% DMAC, 15% Tween 80, and 75% 0.1M Na2HPO4 buffer were used.
For immunohistochemical analysis, mice were anesthetized with 2% Avertin (20 μg g^−1, intraperitoneally), perfused with 0.9% saline, and perfused with ice-cold 4% paraformaldehyde. Excised brains of B6C3H/APP/PS1 mice were fixed in 4% paraformaldehyde (pH 7.4) for 16 hours. The fixed brain samples were immersed in 30% sucrose for cryoprotection and sliced to a thickness of 35 μm using a Cryostat (Microm HM 525, Thermo Scientific, Waltham, Mass., USA). To visualize Aβ plaques, sliced brain sections were stained with thioflavin S (ThS) for 7 minutes. […]
Images were taken with a Leica DM2500 fluorescence microscope. Plaque numbers were calculated from a single brain image of each mouse using the ImageJ software program.
Aβ deposition in the brain of APP/PS1 mice can be detected at 6 months of age. […]

mTORC1 [5] = assay: In vivo mTORC1 inhibition, S6K phosphorylation in brain neocortex and hippocampus of C57BL/6 mice; parameters: species or system mouse
Protocol: as §3
On the other hand, the present inventor attempted to evaluate the mTOR. inhibitory activity by salt concentration of the compound of Example 1-1 based on the above results.

autophagy [6] = assay: In vivo autophagy (LC3 II or p62 degradation) in brain of C57BL/6 mice; parameters: species or system mouse; conditions: 100 mg/kg intraperitoneal; 7-week-old C57BL/6 male mice
Protocol: as §3

mTORC2 [7] = target: T1, mTORC2; assay: mTORC2 activation (p-AKT S473) in TSC2 CKO epilepsy animal model; type: in vivo; conditions: TSC2 CKO mice; rapamycin 3 mg/kg or Example 1-1K 10 mg/kg i.p.; 4 weeks
Protocol: as §1, §2

LRS and RagD, sequence (Q9P2J5 whole entry): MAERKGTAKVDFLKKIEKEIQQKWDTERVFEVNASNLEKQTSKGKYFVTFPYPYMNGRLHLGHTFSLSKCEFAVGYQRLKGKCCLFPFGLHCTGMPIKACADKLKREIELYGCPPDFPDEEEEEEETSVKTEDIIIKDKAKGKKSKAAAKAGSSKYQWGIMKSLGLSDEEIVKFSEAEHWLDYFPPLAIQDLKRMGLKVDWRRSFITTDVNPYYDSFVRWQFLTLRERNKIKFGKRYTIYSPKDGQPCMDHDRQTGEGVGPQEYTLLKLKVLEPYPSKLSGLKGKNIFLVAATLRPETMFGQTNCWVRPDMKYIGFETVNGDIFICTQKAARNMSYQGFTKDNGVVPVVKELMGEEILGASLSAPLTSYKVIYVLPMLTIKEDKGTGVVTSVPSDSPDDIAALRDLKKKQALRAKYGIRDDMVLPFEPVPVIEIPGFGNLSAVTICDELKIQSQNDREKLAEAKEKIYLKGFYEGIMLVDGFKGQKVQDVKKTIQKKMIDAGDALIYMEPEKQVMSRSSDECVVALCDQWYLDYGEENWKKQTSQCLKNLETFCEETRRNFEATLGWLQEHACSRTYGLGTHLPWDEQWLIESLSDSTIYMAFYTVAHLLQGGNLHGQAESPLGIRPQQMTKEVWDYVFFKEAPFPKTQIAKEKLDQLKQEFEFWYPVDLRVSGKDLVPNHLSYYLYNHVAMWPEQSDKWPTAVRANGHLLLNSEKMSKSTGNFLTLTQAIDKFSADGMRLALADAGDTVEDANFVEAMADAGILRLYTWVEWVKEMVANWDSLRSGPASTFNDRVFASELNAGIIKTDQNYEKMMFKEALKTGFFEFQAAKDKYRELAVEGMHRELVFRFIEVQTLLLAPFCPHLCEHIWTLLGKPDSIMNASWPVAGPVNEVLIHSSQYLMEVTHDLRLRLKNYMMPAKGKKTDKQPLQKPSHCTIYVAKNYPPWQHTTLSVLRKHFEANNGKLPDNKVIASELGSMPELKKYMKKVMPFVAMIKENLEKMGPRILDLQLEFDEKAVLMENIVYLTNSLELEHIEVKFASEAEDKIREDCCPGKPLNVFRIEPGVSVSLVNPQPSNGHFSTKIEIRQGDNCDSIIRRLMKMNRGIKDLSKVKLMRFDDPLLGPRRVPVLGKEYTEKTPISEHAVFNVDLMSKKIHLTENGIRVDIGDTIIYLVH

Row | interaction between LRS and RagD (LRS and RagD) | mTORC2 activation, p-AKT (S473) (mTORC2 [7]) | SMILES | GTP hydrolysis of RagD (RagD) | autophagy (LC3 II increase or p62 cleavage) (autophagy [1]) | mTORC1 activation, p-S6K (T389) in cerebral cortex and hippocampus (mTORC1 [3]) | mTORC1 inhibitory effect (%) (mTORC1 [4]) | other results
1 | directly inhibited |  | O=C1NC(=S)S/C1=C\c1cnn(-c2ccccc2)c1 [Example 1-1, (5Z)-5-[(1-phenylpyrazol-4-yl)methylene]-2-thioxo-thiazolidin-4-one] | inhibiting the GTP hydrolysis of RagD |  |  |  | 
2 | directly inhibited | not affected | O=C1[N-]C(=S)S/C1=C\c1cnn(-c2ccccc2)c1.[K+] [Example 1-1K, Potassium Salt of (5Z)-5-[(1-phenylpyrazole-4-yl)methylene]-2-thioxo-thiazolidin-4-one] | inhibiting the GTP hydrolysis of RagD | induced | reduced | ≥ 85% | phosphorylation degree of AKT (mTORC2 activity) (mTORC2 [2]): not changed; amyloid plaque deposits (ThS staining) in the brain (B6C3H/APP/PS1 mice): significantly reduced; phosphorylation of S6K in the brain, by dose (mTORC1 [5]; 0, 1, 2.5, 5, 10, 20 and 50 mg/kg intraperitoneal, C57BL/6 male mice): inhibited the phosphorylation of S6K in the brain of the animal in a concentration-dependent manner; phosphorylated S6K in brain neocortex and hippocampus (mTORC1 [5]; 100 mg/kg intraperitoneal, 7-week-old C57BL/6 male mice): not detected; autophagy action (degradation of LC3 II or p62) (autophagy [6]): increased
3 |  |  | O=C1NC(=S)S/C1=C\c1ccn(-c2ccc(Cl)cc2)n1 [Example 1-55, (5Z)-5-[[1-(4-chlorophenyl)pyrazol-3-yl]methylene]-2-thioxo-thiazolidin-4-one] |  |  |  | 74.6 ± 6.5% | 
4 |  |  | O=C1NC(=O)/C(=C/c2ccn(-c3ccccc3)n2)S1 [Example 1-58, (5Z)-5-[[1-phenylpyrazol-3-yl]methylene]thiazolidine-2,4-dione] |  |  |  | 59.51 ± 4.35% | 
5 |  |  | O=C1NC(=O)/C(=C/c2ccn(-c3cccnc3)n2)S1 [Example 1-60, (5Z)-5-[[1-(3-pyridyl)pyrazol-3-yl]methylene]thiazolidine-2,4-dione] |  |  |  | 81.52 ± 3.79% | 
6 |  | not affected | CO[C@H]1C[C@@H]2CC[C@@H](C)[C@@](O)(O2)C(=O)C(=O)N2CCCC[C@H]2C(=O)O[C@H]([C@H](C)C[C@@H]2CC[C@@H](O)[C@H](OC)C2)CC(=O)[C@H](C)/C=C(\C)[C@@H](O)[C@@H](OC)C(=O)[C@H](C)C[C@H](C)/C=C/C=C/C=C/1C [rapamycin, reference compound] |  | induced | reduced |  | 
